Experimental data from ChEMBL document CHEMBL5726294, “Derivatives of 6-(2,3-dichlorophenyl)-1,2,4-triazin-5-amine” (2019).
Several values for one entry are separate records, joined by “and”; a condition that tells them apart may be missing. Identical values can stand only once.

Tests used:
[1] = biological target: T1, Sodium channel protein type 9 subunit alpha (Homo sapiens, UniProt Q15858); experiment: (§1) Ex-Vivo Potencies in Tonic state: The potencies of the compounds provided herein to block specific Na+ channels was measured using automated patch clamp electrophysiologically of Nav1.7 sodium channels (human SCN9A gene) stably expressed in CHO cells using the IonWorks Barracuda system. Currents were measured from the whole cell patch configuration. From a holding potential of −90 mV, membranes were subjected to a 200 ms pre-pulse to −120 mV, then pulsed to 0 mV to measure blockade of the tonic (resting) state. Inactivated state block was elicited by repolarization to −100 mV (20 ms pulse duration), followed by depolarization to 0 mV (20 ms pulse duration). Peak inward Na+ currents were measured in the presence of vehicle or various concentrations of the test compound to determine the percent block of current.; type: cell-based
[2] = biological target: T1, Sodium channel protein type 9 subunit alpha; experiment: as §1, with “Inactivated” for “Tonic”; type: cell-based

T1 sequence (Q15858 whole entry): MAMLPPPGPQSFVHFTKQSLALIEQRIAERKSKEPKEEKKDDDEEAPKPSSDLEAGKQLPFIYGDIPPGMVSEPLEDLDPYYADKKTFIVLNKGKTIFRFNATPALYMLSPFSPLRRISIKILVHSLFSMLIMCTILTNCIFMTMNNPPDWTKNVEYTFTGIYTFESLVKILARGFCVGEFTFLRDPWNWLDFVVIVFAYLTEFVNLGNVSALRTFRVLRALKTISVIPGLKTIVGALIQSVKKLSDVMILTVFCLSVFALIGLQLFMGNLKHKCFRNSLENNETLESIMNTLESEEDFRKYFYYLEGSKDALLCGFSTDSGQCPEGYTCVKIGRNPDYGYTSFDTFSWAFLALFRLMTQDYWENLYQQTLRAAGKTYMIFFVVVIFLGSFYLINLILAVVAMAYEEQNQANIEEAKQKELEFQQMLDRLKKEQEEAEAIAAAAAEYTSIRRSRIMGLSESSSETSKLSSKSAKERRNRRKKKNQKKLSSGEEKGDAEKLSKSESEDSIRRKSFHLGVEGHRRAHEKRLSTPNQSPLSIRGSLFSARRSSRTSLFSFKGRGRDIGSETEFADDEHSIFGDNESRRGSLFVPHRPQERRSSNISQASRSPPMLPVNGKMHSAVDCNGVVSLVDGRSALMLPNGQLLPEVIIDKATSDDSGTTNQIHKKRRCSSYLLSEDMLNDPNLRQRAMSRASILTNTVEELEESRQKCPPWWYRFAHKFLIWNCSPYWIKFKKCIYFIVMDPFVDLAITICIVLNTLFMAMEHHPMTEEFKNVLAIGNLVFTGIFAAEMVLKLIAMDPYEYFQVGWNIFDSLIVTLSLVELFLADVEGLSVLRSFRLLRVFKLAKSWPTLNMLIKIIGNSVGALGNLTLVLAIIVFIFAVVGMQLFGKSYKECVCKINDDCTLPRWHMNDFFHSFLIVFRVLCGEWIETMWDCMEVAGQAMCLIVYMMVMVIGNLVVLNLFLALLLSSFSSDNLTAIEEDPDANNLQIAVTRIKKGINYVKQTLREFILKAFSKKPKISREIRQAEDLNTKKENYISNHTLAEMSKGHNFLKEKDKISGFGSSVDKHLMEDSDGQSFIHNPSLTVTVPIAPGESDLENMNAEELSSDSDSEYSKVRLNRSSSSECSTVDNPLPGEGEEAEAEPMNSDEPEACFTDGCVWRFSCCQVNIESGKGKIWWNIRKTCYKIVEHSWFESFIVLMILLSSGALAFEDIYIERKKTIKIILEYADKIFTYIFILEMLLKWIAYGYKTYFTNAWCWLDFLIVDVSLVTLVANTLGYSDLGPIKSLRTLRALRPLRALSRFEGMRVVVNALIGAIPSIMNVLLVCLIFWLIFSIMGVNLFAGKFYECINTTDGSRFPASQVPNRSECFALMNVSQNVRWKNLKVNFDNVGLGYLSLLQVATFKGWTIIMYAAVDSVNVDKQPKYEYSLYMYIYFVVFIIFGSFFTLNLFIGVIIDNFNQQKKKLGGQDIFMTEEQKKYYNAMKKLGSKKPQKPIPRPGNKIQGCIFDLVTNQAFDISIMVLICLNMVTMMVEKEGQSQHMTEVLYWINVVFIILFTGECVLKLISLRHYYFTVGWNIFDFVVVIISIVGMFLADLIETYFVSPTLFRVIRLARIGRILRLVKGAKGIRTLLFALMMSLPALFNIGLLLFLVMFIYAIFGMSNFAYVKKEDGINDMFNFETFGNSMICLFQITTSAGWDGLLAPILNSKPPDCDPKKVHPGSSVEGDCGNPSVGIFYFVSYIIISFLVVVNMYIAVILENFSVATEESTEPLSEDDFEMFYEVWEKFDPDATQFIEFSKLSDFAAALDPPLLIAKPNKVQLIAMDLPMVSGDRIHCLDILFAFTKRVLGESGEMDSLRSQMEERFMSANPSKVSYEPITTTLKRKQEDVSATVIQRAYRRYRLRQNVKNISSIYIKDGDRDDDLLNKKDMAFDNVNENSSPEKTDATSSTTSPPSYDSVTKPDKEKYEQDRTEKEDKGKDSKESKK

SMILES	IC50 [1]	IC50 [2]
C[C@@H]1CN(c2nnc(-c3cccc(Cl)c3Cl)c(N)n2)C[C@H](C)N1	112 µM	< 50 µM
Nc1nc(N2CC(OCC(F)(F)F)C2)nnc1-c1cccc(Cl)c1Cl		> 300 µM
Nc1nc(N2CCN(C3CCOCC3)CC2)nnc1-c1cccc(Cl)c1Cl	147 µM	< 50 µM
C[C@@H]1CN(c2nnc(-c3cc(F)cc(Cl)c3Cl)c(N)n2)C[C@H](C)N1	92.4 µM	< 50 µM
COCCOCCOCCN(C)C1CCN(c2nnc(-c3cccc(Cl)c3Cl)c(N)n2)CC1	92.5 µM	< 50 µM
Nc1nc(NCCOCCNCC(=O)O)nnc1-c1cccc(Cl)c1Cl		> 300 µM
CC(CO)Nc1nnc(-c2cccc(Cl)c2Cl)c(N)n1 (centres undefined)	> 200 µM	127 µM
COCCOCCOCC(=O)N1CCN(c2nnc(-c3cc(F)cc(Cl)c3Cl)c(N)n2)CC1	> 200 µM	146 µM and 220 µM
Nc1nc(N2CC(O)(C(F)(F)F)C2)nnc1-c1cccc(Cl)c1Cl	> 200 µM	291 µM and 249 µM
COCCOCCOCCOc1ccc(-c2nnc(N)nc2N)c(Cl)c1Cl		> 300 µM
Nc1nc(N2CCN[C@@H](CO)C2)nnc1-c1cc(F)cc(Cl)c1Cl	> 200 µM	111 µM
COCCOCCOCCN1CCN(c2nnc(-c3cccc(Cl)c3Cl)c(N)n2)CC1	> 200 µM	54.9 µM and < 50 µM
Nc1nc(N2CC(O)C2)nnc1-c1cccc(Cl)c1Cl	> 132 µM	
COCCOCCOCCN1CCC(Nc2nnc(-c3cc(F)cc(Cl)c3Cl)c(N)n2)CC1	> 200 µM	
COCCOCCOCC(C)Nc1nnc(-c2cccc(Cl)c2Cl)c(N)n1 (centres undefined)	> 200 µM	< 50 µM
Nc1nc(N2CCN[C@H](CO)C2)nnc1-c1cccc(Cl)c1Cl	> 200 µM	71.8 µM
Nc1nc(N2CC(N)C2)nnc1-c1cccc(Cl)c1Cl		284 µM
Nc1nc(N2CCN[C@H](CO)C2)nnc1-c1cc(F)cc(Cl)c1Cl	> 200 µM	72.6 µM
Nc1nc(N2CCN(CC(O)CO)[C@H](CO)C2)nnc1-c1cccc(Cl)c1Cl (some centres undefined)	> 200 µM	293 µM and 243 µM
Nc1nc(N2CCN(C3CCNCC3)CC2)nnc1-c1cccc(Cl)c1Cl	> 200 µM	272 µM
Nc1nc(N2CCC(O)(C(F)(F)F)CC2)nnc1-c1cccc(Cl)c1Cl	> 200 µM and 165 µM	73.9 µM and 59.1 µM
Nc1nc(NC2CCNCC2)nnc1-c1cccc(Cl)c1Cl		> 300 µM
Nc1nc(N2CCNCC2)nnc1-c1cc(F)cc(Cl)c1Cl	> 200 µM	84.5 µM
